According to patent publication US8071588B2, “Dual pharmacophores—PDE4-muscarinic antagonistics” (Glaxo Group Limited, priority 2008, dated 2011):
Values belong to the compound of their own block, whether it stands above or below them.

Columns and labels:
[1] = tested on: M1, M2 (w/Gqi5) and M3 ACh receptors stably expressed in CHO cells; test: Calcium mobilization (FLIPR) IC50 determination for antagonists, inhibition of ACh induced muscarinic receptor activation; assay type: cell-based, human; details: EC80 ACh, active if IC50 of between 33 uM and 10 nM or less, listed examples found to be the most active
Text: Studies to determine the effectiveness of antagonists to cause blockade of functional intracellular calcium fluxes following agonist (ACh) treatment of cloned human receptors.
This system is used for characterizations of antagonist-receptor interactions using four distinct variations of the FLIPR methodology: (a) potency: IC50 determination, (b) potency: pA2 determination, (c) reversibility of antagonist-receptor interaction, or (d) confirmation of no functional agonist activity. Cell Source The human M1-M3 receptors are cloned and stably expressed in Chinese Hamster Ovary (CHO) cells. The M2 receptors are co-expressed with the chimeric G protein, Gqi5. […] The emitted fluorescence from all 96 wells is measured simultaneously using a cooled CCD camera. […] Experimental Protocols: Cell plating: A microtiter plate based calcium mobilization FLIPR (Fluorometric Imaging Plate Reader, Molecular Devices, Sunnyvale Calif., [Schroeder K S, Neagle, B D. FLIPR: a new instrument for accurate, high throughput optical screening. J. Biomol. Screen. 1996; 1:75.]) assay is used for the functional characterization of compounds against M1, M2 (w/Gqi5) and M3 ACh receptors stably expressed in CHO cells. […]

Human recombinant PDE4B = target: T1, Human recombinant PDE4B (Homo sapiens, UniProt Q07343); test: Inhibition of PDE activity: luciferase-coupled PDE assay (PDE4B); assay type: biochemical; details: active if pIC50 of about 6 to 10.4 or greater against PDE4B; listed examples found to be the most active
T1 construct: made in house; host or cells: Saccharomyces cerevisiae strain GL62
T1 sequence (Q07343 1-564 isoform Q07343-2): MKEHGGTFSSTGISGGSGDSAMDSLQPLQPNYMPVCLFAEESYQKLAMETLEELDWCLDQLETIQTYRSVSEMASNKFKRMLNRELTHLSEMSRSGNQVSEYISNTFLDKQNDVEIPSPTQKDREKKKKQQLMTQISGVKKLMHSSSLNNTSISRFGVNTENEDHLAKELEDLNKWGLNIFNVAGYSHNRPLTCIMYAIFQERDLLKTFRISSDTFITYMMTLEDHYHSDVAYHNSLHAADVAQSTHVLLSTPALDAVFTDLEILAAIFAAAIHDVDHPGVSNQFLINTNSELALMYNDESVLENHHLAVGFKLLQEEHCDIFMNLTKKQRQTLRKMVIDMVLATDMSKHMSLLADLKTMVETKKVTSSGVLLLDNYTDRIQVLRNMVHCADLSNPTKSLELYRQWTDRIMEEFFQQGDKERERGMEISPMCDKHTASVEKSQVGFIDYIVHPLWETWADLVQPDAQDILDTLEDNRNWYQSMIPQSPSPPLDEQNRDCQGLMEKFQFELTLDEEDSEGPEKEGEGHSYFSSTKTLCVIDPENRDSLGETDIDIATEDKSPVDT
Text: Human recombinant PDE4B, in particular the 2B splice variant thereof (HSPDE4B2B), is disclosed in WO 94/20079 and also in M. M. McLaughlin et al., “A low Km, rolipram-sensitive, cAMP-specific phosphodiesterase from human brain: cloning and expression of cDNA, biochemical characterization of recombinant protein, and tissue distribution of mRNA”, J. Biol. Chem., 1993, 268, 6470-6476. For example, in Example 1 of WO 94/20079, human recombinant PDE4B is described as being expressed in the PDE-deficient yeast Saccharomyces cerevisiae strain GL62. PDE4B expression is induced by the addition of 150 μM CuSO4.
For luminescence-coupled assay based screening the supernatant fractions of yeast cell lysates are subjected to Cibacron blue affinity chromatography, dialysis and desalting, to enrich for PDE4B and to remove components, e.g. ATP, able to interfere with the assay. Human recombinant PDE4D (HSPDE4D3A) is disclosed in P. A. Baecker et al., “Isolation of a cDNA encoding a human rolipram-sensitive cyclic AMP phosphodiesterase (PDE IVD)”, Gene, 1994, 138, 253-256. Expression of human PDE4D in yeast, and subsequent preparation of the recombinant protein for assay was as described for PDE4B.
Inhibition of PDE4B and PDE4D are measured using a luminescence-coupled assay system developed by Cambrex. This assay system couples the formation of AMP, derived from PDE4-catalyzed hydrolysis of cAMP, to the formation of ATP. The ATP is then used as a substrate for Luciferase and results in light as a signal output. […] The luminescence is then measured on a Viewlux imager (Perkin Elmer) using emission filters of 613/55 nm or 618/40 nm and a 5 second exposure. […] Curves were analyzed using ActivityBase and XL fit, and results are expressed as pIC50 values. […]
Curves were analyzed using ActivityBase and XLfit, and results are expressed as pIC50 values. […]

SMILES: CCc1nc2c(cnn2CC)c(NC2CCOCC2)c1CNC(=O)CC(=O)NCc1cccc(-c2cccc(CN3CCCNCC3)c2)c1 [Example 180, N-{[1,6-Diethyl-4-(tetrahydro-2H-pyran-4-ylamino)-1H-pyrazolo[3,4-b]pyridin-5-yl]methyl}-N′-{[3′-(hexahydro-1H-1,4-diazepin-1-ylmethyl)-3-biphenylyl]methyl}propanediamide]
activity in FLIPR antagonist IC50 assay (inhibition of ACh induced response) [1]: most active

SMILES: CCc1nc2c(cnn2CC)c(NC2CCOCC2)c1CNC(=O)CC(=O)NCc1ccc(F)c(-c2cccc(CN3C[C@@H](C)N[C@@H](C)C3)c2)c1 [Example 217, N-{[1,6-diethyl-4-(tetrahydro-2H-pyran-4-ylamino)-1H-pyrazolo[3,4-b]pyridin-5-yl]methyl}-N′-[(3′-{[(3R,5S)-3,5-dimethyl-1-piperazinyl]methyl}-6-fluoro-3-biphenylyl)methyl]propanediamide]
activity in the PDE4B assay (pIC50) (Human recombinant PDE4B): most active

SMILES: CCc1nc2c(cnn2CC)c(NC2CCOCC2)c1CNC(=O)CCCC(=O)NCc1ccc(F)c(-c2cccc(CN3C[C@@H]4C[C@@H]3CN4Cc3ccccc3)c2)c1 [Example 193, N-{[1,6-diethyl-4-(tetrahydro-2H-pyran-4-ylamino)-1H-pyrazolo[3,4-b]pyridin-5-yl]methyl}-N′-[(6-fluoro-3′-{[(1R,4S)-5-(phenylmethyl)-2,5-diazabicyclo[2.2.1]hept-2-yl]methyl}-3-biphenylyl)methyl]pentanediamide]
activity in FLIPR antagonist IC50 assay (inhibition of ACh induced response) [1]: most active

More lines, now with the values ahead:

activity in the PDE4B assay (pIC50) (Human recombinant PDE4B): most active
SMILES: CCc1nc2c(cnn2CC)c(NC2CCOCC2)c1CNC(=O)CCC(=O)NCc1ccc(F)c(-c2cccc(CN3CCN[C@H](C)C3)c2)c1 [Example 267, N-{[1,6-diethyl-4-(tetrahydro-2H-pyran-4-ylamino)-1H-pyrazolo[3,4-b]pyridin-5-yl]methyl}-N′-[(6-fluoro-3′-{[(3R)-3-methyl-1-piperazinyl]methyl}-3-biphenylyl)methyl]butanediamide]

activity in the PDE4B assay (pIC50) (Human recombinant PDE4B): most active
SMILES: CCc1nc2c(cnn2CC)c(NC2CCOCC2)c1CNC(=O)CCC(=O)NCc1ccc(Cl)c(-c2cccc(CN3CCN[C@@H](C)C3)c2)c1 [Example 265, N-[(6-chloro-3′-{[(3S)-3-methyl-1-piperazinyl]methyl}-3-biphenylyl)methyl]-N′-{[1,6-diethyl-4-(tetrahydro-2H-pyran-4-ylamino)-1H-pyrazolo[3,4-b]pyridin-5-yl]methyl}butanediamide]
